In a melting point compilation (Tetko et al.; mined from patent text by program, amines drawn as free bases though some values may be those of a salt) one finds melting point data, which are given here for 88 compounds.

For orientation: melting point means the temperature, or range, at which the solid turns liquid.

`CC(=O)Oc1cc(OCc2ccccc2)cc(OC(C)=O)c1` registered a melting point of 129 to 130 °C.

The compound `Cc1cc(-c2noc(C)c2-c2ccc(S(N)(=O)=O)c(F)c2)ccc1-c1cscn1` showed a melting point of 159 °C.

`CCCc1c(O)ccc(C(=O)c2ccccc2O)c1O` had a melting point of 110 to 113 °C.

The compound `O=C(CCCCl)Nc1nnc(-c2ccc(Br)cc2)s1` came in with a melting point of 187 to 189 °C.

The compound `O=C(C=C1CCCN1)c1ccc(Cl)cc1` displayed a melting point of 146 to 147 °C.

As to `C[C@]12CC[C@H](O)CC1=CCC1C2CC[C@@]2(C)C1CC[C@H]2n1cc(-c2ccccc2)nn1` (stereo partly drawn), the melting point fell in the range of 234 to 236 °C.

Turning to `O=C(CN1C(=O)CNC1=O)OCc1ccccc1`, the melting point lay within 142 to 144 °C.

`CCc1cc(Cc2cc(CC)c(N=C=O)c(CC)c2)cc(CC)c1N=C=O`: the melting point was in the range of 56 to 57 °C.

`COC(=O)C=CC=Cc1cc([N+](=O)[O-])ccc1Cl` yielded a melting point of 132 °C.

Regarding `CCCCCCN(C[C@H]1CCC[C@H](CN(CCCCCC)C(=O)Nc2ccc(N(C)C)cc2)C1)C(=O)Nc1ccc(N(C)C)cc1` (relative stereo), the melting point fell in the range of 121 to 125 °C.

Compound `COc1ccc(C)cc1NC(=O)Nc1ccc(N2CCN(C(=O)Nc3ccc(OCCO)cc3C(F)(F)F)CC2)c(C#N)c1` showed a melting point of 135 to 137 °C.

For `CCOC(=O)c1cc(OC)ccc1CCc1cc2cc(C#N)ccc2o1`, the melting point fell in the range of 92 to 93 °C.

Consider `CCn1nc(-c2ccccc2)c(C(C)=O)c(Nc2ccc([N+](=O)[O-])cn2)c1=O`, for which the melting point was 200 to 201 °C.

For the compound `COc1ccc(C(=O)c2cccc(C(F)(F)F)c2)cc1C`, the melting point was 56 to 59 °C.

Compound `CC(=O)OC1CC(=O)N(CC(N)=O)C1` (stereo not drawn) showed a melting point of 84 to 86 °C.

`O=C(CC[N+](=O)[O-])c1ccccc1` gave a melting point of 59 to 62 °C.

For `Cc1ccc([N+](=O)[O-])cc1Nc1ccc(C(F)(F)F)cn1`, the melting point lay within 103 to 105 °C.

`CCc1ccccc1-c1cccc(-n2cnc(-c3nc(C)no3)c2)c1` displayed a melting point of 150 to 156 °C.

For `CN(C(=O)CBr)n1cccc1C(=O)c1ccccc1`, the melting point was in the range of 76 to 78 °C.

With `O=C(Nc1c(Cl)cccc1Cl)C1c2ccccc2COc2ccc(Br)cc21` (stereo not drawn), the melting point is 185 to 187 °C.

For the compound `COc1ccc2c(c1OC)CC(c1ccccc1)CC2C#N` (stereo not drawn), the melting point lay within 118 to 121 °C.

Turning to `Cc1ccc2c(c1)c(=O)oc(=O)n2Cc1ccccc1`, the melting point amounted to 150 °C.

For `CNCC1CN(c2c(F)cc3c(=O)c(C(=O)O)cn(-c4ccc(F)cc4F)c3c2F)CCO1` (stereo not drawn), the melting point lay within 224 to 227 °C.

`CNCC(O)COc1ccccc1` (stereo not drawn) had a melting point of 74 to 77 °C.

Compound `COCc1cc2c(c3c1[nH]c1ccc(O)cc13)C(=O)N(CCN(C)C)C2=O` showed a melting point of 235 to 237 °C.

As to `O=c1c(CCCc2ccccn2)cc2cccnc2n1-c1ccc2nsnc2c1`, the melting point worked out at 170 °C.

Take `Cc1cccc2c1nc(COc1ccc(Cl)cc1)n2CCC(C)C(=O)NNCc1ccccc1` (racemic): the melting point lay within 145 to 146 °C.

In turn, `COc1ccc(CCN2CCC(C(O)c3ccc(NS(C)(=O)=O)cc3)CC2)cc1` (stereo not drawn) displayed a melting point of 40 to 48 °C.

On to `COC(=O)[C@H](Cc1ccc(N)cc1)NC(=O)OC(C)(C)C`, for which the melting point was in the range of 86 to 89 °C.

In the case of `COc1ccccc1Oc1coc(C(=O)O)cc1=O`, the melting point was 202 to 203 °C.

For the compound `NC(=O)Cc1c[nH]c2ncccc12`, the melting point was in the range of 180 to 181 °C.

For `CCCN1C(=O)COc2cc(F)c(-n3nn[nH]c3=O)cc21`, the melting point fell in the range of 145 to 148 °C.

The compound `CC(C)n1cnc2c(Nc3ccc([N+](=O)[O-])cc3)nc(Cl)nc21` gave a melting point of over 260 °C.

On to `Cc1cc(C)cc(NCc2ccc3nc(NCCCN4CCOCC4)n(Cc4nc(C)ccc4O)c3c2)c1`, for which the melting point amounted to 199 °C.

`NC(=O)OCC(Cc1ccccc1)NC(=O)C1CCN(c2c(Cl)cncc2Cl)CC1` (stereo not drawn) returned a melting point of 147 to 149 °C.

`COc1ccnc(CCc2nc3cc(-c4ccc(NC(C)=O)cc4)cnc3[nH]2)c1` had a melting point of 220 to 221 °C.

`CC(C(=O)Nc1ccccc1)n1nc(O)c2[nH]c3cc(Cl)ccc3c(=O)c2c1=O` (stereo not drawn) displayed a melting point of 215 °C.

On to `CCN1c2ncccc2C(=O)N(C)c2ccc(-c3cnn(CC)c3)nc21`, for which the melting point fell in the range of 60 to 62 °C.

As to `CNc1ncnc2ccc(I)cc12`, the melting point was 245 °C.

Take `CCc1cn2c(=O)c(C(=O)O)cnc2c2ccccc12`: the melting point lay in the range of 221 to 223 °C.

The compound `O=C(O)CCCC=CCCc1ccc(OCc2ccccc2)cc1` displayed a melting point of 63 to 65 °C.

Turning to `COc1cccc(OC2CN([C@H]3CC[C@@H](c4cc5ccccc5[nH]4)CC3)C2)c1`, the melting point was in the range of 126 to 127 °C.

Compound `OCC(CO)(COCc1ccccc1)COCc1ccccc1` gave a melting point of 73 °C.

`COC(=O)c1cccc2c1-c1ccc3c(c1C(c1ccccc1)O2)C(C)=CC(C)(C)N3` (stereo not drawn): the melting point was 150 to 152 °C.

`CCOC(=O)c1cn(-c2ccc(Cl)cn2)cn1`: the melting point was in the range of 163 to 164 °C.

Turning to `Cc1ccccc1CC(=O)Nc1ccc(C(=O)N2Cc3cccn3Cc3ccccc32)cc1`, the melting point fell in the range of 198 to 200 °C.

`CC(C)(Oc1ccc(OC(CCC(F)(F)F)c2cccc3c2cnn3-c2ccc(C(F)(F)F)cc2)cc1)C(=O)O` (racemic) registered a melting point of 175 to 180 °C.

In turn, `COc1ccc(S(=O)(=O)Nc2ccccc2NC=O)cc1` returned a melting point of 143 to 144 °C.

With `CCCc1c(OCCCOc2ccc3c(c2CCC)OC(CCC(=O)O)C=C3)ccc(C(C)=O)c1O` (stereo not drawn), the melting point is 60 to 62 °C.

In turn, `CSC(C[C@@H]1CC(=O)N1[Si](C)(C)C(C)(C)C)(SC)SC` showed a melting point of 61 to 62 °C.

`COc1cc(C)c(C(=O)c2ccccc2)c(OC)c1OC` returned a melting point of 88 to 89 °C.

With `COc1cc2nc(SCc3ncc(C)c(N(C)C)c3Cl)[nH]c2cc1OC`, the melting point fell in the range of 120 to 122 °C.

In turn, `O=C1c2sccc2-n2cnc(-c3noc(CCl)n3)c2[C@@H]2CCN12` had a melting point of 210 to 213 °C.

Turning to `O=C1C2CCCC2=Nc2ccccc2N1Cc1ccc(F)cc1` (stereo not drawn), the melting point was in the range of 134 to 137 °C.

As for `COc1ccc(-c2nc(SCC(C)=O)[nH]c2-c2ccc(OC)cc2)cc1`, the melting point lay within 115 to 118 °C.

On to `CC1=CC(C)(C)Cc2c1nc(C(C)C)c(CO)c2-c1ccc(F)cc1`, for which the melting point lay in the range of 112 to 114 °C.

On to `COC(=O)[C@H](CSCc1ccccc1)NC(=O)Nc1n[nH]c(=S)s1`, for which the melting point was 169 to 172 °C.

Take `NC1(C(F)F)CCCNC1=O` (stereo not drawn): the melting point worked out at 149 °C.

`COc1cn(-c2cccc(C(F)(F)F)c2)nc(C(=O)N(C)OC)c1=O` had a melting point of 170 to 171 °C.

`COc1cc2c(c(OC)c1OC)-c1cc(I)c(O)cc1[C@@H](NC(C)=O)CC2`: the melting point is 210 °C.

In turn, `CCC1=C(C#N)C(c2cccc(C#N)c2Br)c2c[nH]nc2N1` (stereo not drawn) returned a melting point of over 300 °C.

Consider `ClCc1coc(-c2ccc3oc(-c4ccccc4)nc3c2)n1`, for which the melting point is 194 to 195 °C.

`CCOC(=O)c1ccc2n1Cc1ccccc1N(C(=O)c1ccc(NC(=O)c3ccc(Cl)cc3Cl)c(C)c1)C2` came in with a melting point of 174 to 184 °C.

In the case of `Cc1oc2c(Br)cc(C(CCOS(C)(=O)=O)CCOS(C)(=O)=O)cc2c1C`, the melting point was 154 to 156 °C.

As for `Cc1cnnc2c(-c3ccc(F)cc3)c(-c3ccncc3)nn12`, the melting point was 202 to 204 °C.

Compound `CC(=O)OC1CSC(Sc2ccc(C#N)cc2C#N)C(OC(C)=O)C1OC(C)=O` (stereo not drawn) returned a melting point of 228 °C.

Turning to `CC(=O)Nc1ccc(-c2ccoc2)cc1[N+](=O)[O-]`, the melting point was 152 to 154 °C.

In turn, `CC1C(C)(C)C2CCc3cnoc3C2C1(C)C` (stereo not drawn) came in with a melting point of 82.3 °C.

For `CC(C)C(N)C(O)COc1ccccc1C1=NNC(=O)CC1` (stereo not drawn), the melting point was 124 to 126 °C.

Consider `O=C(O)c1cc(=O)c2cc([N+](=O)[O-])ccc2s1`, for which the melting point came to 220 °C.

`CC(=O)C(C)(C)N1COC(C)=C(c2ccccc2)C1=O` registered a melting point of 118 to 119 °C.

In turn, `O=C(O)CNc1ccc(Cl)cc1C(=O)O` had a melting point of 182 to 183 °C.

Compound `O=[N+]([O-])c1ccc(-c2nc(-c3cccnc3)no2)cc1` had a melting point of 163 to 166 °C.

Compound `COc1ccccc1OCC(O)CNCCOc1ccc(C(N)=O)cn1` (stereo not drawn) showed a melting point of 98 to 105 °C.

Compound `COc1ccc(S(=O)(=O)N2C(=O)C(NC(C)=O)(c3ccccc3)c3cc(Cl)ccc32)c(OC)c1` (stereo not drawn) showed a melting point of 253 °C.

Consider `Cn1c(-c2ccccc2)c(-c2ccc(C(=O)O)cc2)c2ccccc21`, for which the melting point lay in the range of 165 to 166 °C.

Compound `COc1ccc(OC)c2c1C[C@@H](O)[C@@H](N)C2` (relative stereo) had a melting point of 193 to 196 °C.

`NC(=O)COCCN1CCN2c3ccccc3Cc3ccccc3C2C1` (stereo not drawn) gave a melting point of 66 to 68 °C.

`CCc1nc(/C=C/c2cn(-c3ccccc3)nc2OCc2ccc(OCc3nc(-c4cccc([N+](=O)[O-])c4)oc3C)c(OC)c2)cs1` returned a melting point of 127 to 129 °C.

`Cn1nc(C(F)(F)F)c(CSC2=NOC(C)(C)C2)c1OC(F)F` came in with a melting point of 39 to 40 °C.

`COC(=O)[C@H]1Cc2c(sc3ccccc23)[C@@H](c2cccc(O)c2)N1` gave a melting point of 283 to 285 °C.

Consider `CC(=O)NNC1=Nc2sc(Cl)cc2C(c2ccccn2)=NC1`, for which the melting point was 193 to 195 °C.

In turn, `CCCc1c(OCCCOc2ccc3c(c2CCC)OC(C(=O)O)(C2CC2C(=O)O)CC3)ccc(C(C)=O)c1O` (stereo not drawn) returned a melting point of 138 to 140 °C.

Compound `NSc1nc(N)nc2nc[nH]c12` showed a melting point of over 250 °C.

`COC(=O)c1cc(OCC(=O)O)cc(C(=O)OC)c1[N+](=O)[O-]` returned a melting point of 151 to 152 °C.

In the case of `O=C(O)CSC(c1ccccc1)c1ccccc1`, the melting point fell in the range of 126 to 129 °C.

Compound `CCS(=O)(=O)n1cc(C(=O)c2ccn3c2CSC3c2cccnc2)c2ccc(-c3ccc(F)cc3)cc21` (stereo not drawn) gave a melting point of 132 °C.

The compound `COc1cccc2c1N(S(=O)(=O)c1ccc(-c3ccc(F)cc3F)cc1)C(C(=O)NCc1ccc(C(=O)O)cc1)C2` (stereo not drawn) gave a melting point of 218 °C.
